Assay results reported in patent US4315939A, “Piperidine derivatives of 4,5-dialkyl-3-hydroxy-pyrrole-2-carboxylic acid esters, pharmaceutical formulations containing these compounds and use in treating cardiac arrhythmias” (priority 1979, dated 1982).
Where a name gives a salt, the structure may show the parent alone.

Legend:
Assay type in all cases: in vivo, rats (Sprague Dawley)
[1] = system: rats; assay: Toxicity / toleration in rats (changes in the initial ECG, cyanosis and cramps), oral administration; parameters: Toxicity: Dose whose administration produces the first toxic symptoms: unit: mg/kg; details: for Toxicity: Dose whose administration produces the first toxic symptoms / Q (therapeutic range, quotient of the toxic dose and the ED 50%): oral, rats; for Toxicity: Dose whose administration produces the first toxic symptoms: mg/kg printed only over the effective dose columns and in b40 (log dose); for Q (therapeutic range, quotient of the toxic dose and the ED 50%): toxic dose / ED 50%
Protocol: (§1) To determine the anti-arrhythmic activity, the substances are administered orally to rats (Sprague Dawley, weight 200-250 g), 45 minutes before narcosis.
(§2) The animals are narcotized with sodium thiobutabarbital (100 mg/kg administered intraperitoneally). The arrhythmogenic substance used is aconitine, which is infused intravenously, at a rate of 0.005 mg/kg×min 60 minutes after the administration of the anti-arrhythmicagent. In untreated animals (N=52), arrhythmias manifest themselves in the electrocardiogram (ECG) after 2.74±0.07 min, and the occurrence of these can be delayed by the anti-arrhythmic agents, the delay being dependent on the dose.
(§3) For further characterization of the substances, the anti-arrhythmic effect of the maximum tolerated dose is determined from the decimal-geometric dose progression (factor 3.cuberoot.10) employed in the experiments. Furthermore, the dose at which toxic symptoms (changes in the initial ECG, cyanosis and cramps) occur is determined.
(§4) ^(3) Effect of the maximum tolerated dose
(§5) ^(6) Dose whose administration produces the first toxic symptoms

[2] = as above; parameters: Toxicity: Dose whose administration produces the first toxic symptoms: unit: mg/kg; details: rat, in vivo; oral, rats; mg/kg printed only over the effective dose columns and in b40 (log dose); read-out: Maximum effect: Dose (maximum tolerated dose)
Protocol: as §1, §2, §3, §4, §5

[3] = system: aconitine-induced arrhythmia of rats; assay: Anti-arrhythmic effect on aconitine-induced arrhythmia in rats, oral administration; details: for ED50 / Emax: Rattus norvegicus, po; for ED50: read-out: ED 50% (dose which lengthens the duration of aconitine infusion by 50%); for Emax: read-out: R.M.E. = relative maximum effect; for Maximum effect: lengthening of the duration of aconitine infusion, Δ%: at the maximum tolerated dose, oral, rats; for anti-arrhythmic activity compared with Prajmalium: in words, aconitine-induced arrhythmia of rats; for R.A. = relative activity: relative to Prajmalium = 1.00, from ED 50%
Protocol: as §1, §2
The dose which lengthens the duration of infusion up to the occurrence of arrhythmias by 50%, namely the ED 50%, is determined from the linear relationships between log dose (mg/kg) of the test substance and the relative increase in the duration of aconitine infusion (Δ%).
as §3
^(1) Dose which lengthens the duration of aconitine infusion by 50%
^(2) R.A. = relative activity. Prajmalium = 1.00
as §4
^(4) Lengthening of the duration of aconitin infusion, Δ %
^(5) R.M.E. = relative maximum effect, Prajmalium = 1.00

Row | SMILES | Toxicity: Dose whose administration produces the first toxic symptoms [1] | Q (therapeutic range, quotient of the toxic dose and the ED 50%) [1] | MTD [2] [mg/kg] | ED50 [3] [mg/kg] | Emax [3] [%] | Maximum effect: lengthening of the duration of aconitine infusion, Δ% [3] [%] | anti-arrhythmic activity compared with Prajmalium [3] | R.A. = relative activity [3] | toxic dose compared with Prajmalium ([1]; in words)
1 | COC(=O)c1[nH]c(C)c(C)c1OCC(O)CN1CCC(O)(c2ccccc2)CC1 (centres unmarked) [Example 19, 3-[2-hydroxy-3-(4-phenyl-4-hydroxy-piperidino)-propoxy]-4,5-dimethyl-pyrrole-2-carboxylic acid methyl ester] | 46.4 | 14 | 21.5 | 3.38 | 174 | 302 | surpass the latter | 1.48 | –
2 | CCOC(=O)c1[nH]c(C)c(C)c1OCCN1CCC(O)(c2ccccc2)CC1 [Example 10, 3-[2-(4-phenyl-4-hydroxy-piperidino)-ethoxy]-4,5-dimethylpyrrole-2-carboxylic acid ethyl ester] | 46.4 | 16 | 21.5 | 2.99 | 199 | 347 | surpass the latter | 1.67 | –
3 | COC(=O)c1[nH]c(C)c(C)c1OCCCN1CCC(O)(c2ccccc2)CC1 [Example 6, 3-[3-(4-phenyl-4-hydroxy-piperidino)-propoxy]-4,5-dimethylpyrrole-2-carboxylic acid methyl ester] | 21.5 | 5.8 | 10 | 3.68 | 87 | 152 | surpass the latter | 1.36 | of equal toxicity to Prajmalium
4 | COC(=O)c1[nH]c(C)c(C)c1OCCCCN1CCC(O)(c2ccccc2)CC1 [Example 11, 3-[4-(4-phenyl-4-hydroxy-piperidino)-butoxy]-4,5-dimethylpyrrole-2-carboxylic acid methyl ester] | 46.4 | 8.4 | 21.5 | 5.54 | 177 | 308 | as active as Prajmalium | 0.90 | –
5 | COC(=O)c1[nH]c(C)c(C)c1OCC(O)CN1CCC(O)(c2ccccn2)CC1 (stereo not drawn) [Example 7, 3-[2-hydroxy-3-(4-α-pyridyl-4-hydroxy-piperidino)-propoxy]-4,5-dimethylpyrrole-2-carboxylic acid methyl ester] | 100 | 7.4 | 46.4 | 13.5 | 176 | 307 | – | 0.37 | –
6 | CCC[N+]12C(O)C(CC)C3CC1C1N(C)c4ccccc4C14CC2C3C4O (centres unmarked) [Prajmalium, N-propylajmalin, reference compound] | 21.5 | 4.3 | 10 | 4.99 | 100 | 174 | – | 1.00 | –
7 | CCOC(=O)c1[nH]c(C)c(C)c1OCC(O)CN1CCC(O)(c2ccc(F)cc2)CC1 (centres unmarked) [Example 13, 3-[2-hydroxy-3-(4-(p-fluorophenyl)-4-hydroxy-piperidino)-propoxy]-4,5-dimethylpyrrole-2-carboxylic acid ethyl ester] | 46.4 | 7.8 | 21.5 | 5.93 | 86 | 149 | as active as Prajmalium | 0.84 | –
8 | CCCCc1c(C)[nH]c(C(=O)OCC)c1OCC(O)CN1CCC(O)(c2ccccc2)CC1 (centres unmarked) [Example 21, 3-[2-hydroxy-3-(4-phenyl-4-hydroxy-piperidino)-propoxy]-4-n-butyl-5-methyl-pyrrole-2-carboxylic acid ethyl ester] | 100 | 10 | 46.4 | 9.85 | 99 | 173 | – | 0.51 | –
9 | CCOC(=O)c1[nH]c(C)c(C)c1OCC(O)CN1CCC(O)(c2ccccc2)CC1 (centres unmarked) [Example 2, 3-[2-hydroxy-3-(4-phenyl-4-hydroxy-piperidino)-propoxy]-4,5-dimethyl-pyrrole-2-carboxylic acid ethyl ester hydrochloride] | 46.4 | 7.5 | 21.5 | 6.23 | 98 | 170 | as active as Prajmalium | 0.80 | –
10 | CCOC(=O)c1[nH]c(C)c(C)c1OCC(O)CN1CCC(O)(c2ccccn2)CC1 (stereo not drawn) [Example 1, 3-[2-hydroxy-3-(4-α-pyridyl-4-hydroxy-piperidino)-propoxy]-4,5-dimethyl-pyrrole-2-carboxylic acid ethyl ester dihydrochloride] | 100 | 13 | 46.4 | 7.8 | 186 | 324 | – | 0.64 | –
